# Assay results from patent publication US7939662B2, “Amorphous ziprasidone hydrochloride (5-[2-[4-(1,2-benzisothiazol-3-yl)-1-piperazinyl]ethyl]-6-chloro-1,3-dihydro-2H-indol-2-one hydrochloride) and processes to produce the same” (Apotex Pharmachem Inc., priority 2004, dated 2011).
# Tests used:
# [1] = crystalline monohydrate form; background statement; cited from earlier work
# [2] = as stated in U.S. Pat. No. 5,312,925; cited from earlier work
# aqueous solubility = type: physicochemical; conditions: relative to those of the prior art; no test described
Compound,aqueous solubility [1],hygroscopic stability [2],water solubility relative to the prior art forms (aqueous solubility)
"Cl.O=C1Cc2cc(CCN3CCN(c4nsc5ccccc45)CC3)c(Cl)cc2N1 [ziprasidone hydrochloride monohydrate, 5-[2-[4-(1,2-benzisothiazol-3-yl)-1-piperazinyl]ethyl]-6-chloro-1,3-dihydro-2H-indol-2-one hydrochloride]",very low,hygroscopically stable,
"Cl.O=C1Cc2cc(CCN3CCN(c4nsc5ccccc45)CC3)c(Cl)cc2N1 [amorphous ziprasidone hydrochloride, 5-[2-[4-(1,2-benzisothiazol-3-yl)-1-piperazinyl]ethyl]-6-chloro-1,3-dihydro-2H-indol-2-one hydrochloride]",,,better water solubility
